# Earlier results as cited in US20180256623A1, “COMPOSITIONS AND METHOD FOR REGULATING ADIPOSE TISSUE LIPOLYSIS, INSULIN-RESISTANCE, AND HYPERGLYCEMIA” (University of Virginia Patent Foundation, priority 2015, published 2018).
# Target: T1, monoglyceride lipase (Homo sapiens, UniProt Q99685)
# T1 sequence (Q99685 1-303): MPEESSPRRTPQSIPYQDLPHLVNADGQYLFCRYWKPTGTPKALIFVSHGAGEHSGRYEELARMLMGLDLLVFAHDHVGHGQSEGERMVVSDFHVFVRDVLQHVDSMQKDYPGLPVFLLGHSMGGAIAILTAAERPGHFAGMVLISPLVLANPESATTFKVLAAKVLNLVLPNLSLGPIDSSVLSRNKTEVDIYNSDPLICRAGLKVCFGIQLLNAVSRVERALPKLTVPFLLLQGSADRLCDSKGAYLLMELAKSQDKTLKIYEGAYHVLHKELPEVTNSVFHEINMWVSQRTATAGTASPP
# Conditions: cited from earlier work
smiles,measurement,value
"CN(C)C(=O)Nc1cccc(-c2ccc(N(C)C)cc2)c1 [Atglistatin, N′-[4′-(dimethylamino) [1,1′-biphenyl]-3-yl]-N,N-dimethyl-urea]",inhibition of monoglyceride lipase,does not inhibit
